Laboratory results: patent US12343319B2, “Compositions and methods for treatment of diseases and disorders” (Atai Therapeutics Inc., priority 2023, dated 2025)
Read-outs that look alike come from different tables or passages of the source.

Experiments:
5-HT2A = 5-HT2A (Homo sapiens, UniProt P28223); assay: 5-HT2A receptor binding in human post-mortem frontal cortical tissue
[1] = Terminal plasma and brain concentrations in mice; type: in vivo; conditions: C57BL/6J, mouse, intraperitoneal
Procedure: Prior to the onset of procedures, animals were weighed and allocated into 5 groups by a statistician based on body weight. Animals sharing a cage were dosed with the same drug treatments to avoid cross contamination between groups. Animals were dosed intraperitoneally with psilocybin (3 mg/kg), or one of 3 doses of compound 2-2 (1 mg/kg, 3 mg/kg, 10 mg/kg). Dosing was to a timed scheduled. Animals were weighed prior to dosing and the body weight recorded. Food and water intake were not monitored. The animals were dosed at time “0” and then returned to the home cage. Behaviors of note after dosing were recorded. Each animal was humanely killed (by exposure to increasing CO2 concentration and confirmation of death by cervical dislocation) to allow terminal blood sampling to take place 15 minutes after dosing. The brain sampling was performed immediately after blood sampling was completed for each animal.
Post-mortem blood samples (approx. 0.5 ml) were collected from all animals by cardiac puncture for DMPK analysis, dispensed into a LH-coated tube. The blood samples were gently inverted, centrifuged promptly (2400 g for 5 minutes at 4° C.) and 150 μl of plasma from each animal was placed into a 96-well plate. Plasma samples from group B were stabilized with DTT (50 mM; 1:10). All plasma samples were frozen on dry ice and stored at approximately −80° C. prior to analysis. Whole brains were removed from all animals, rinsed briefly with saline and blot dried. The left and right frontal cortices (˜25 mg each frontal cortex) were dissected separately from the brain, weighed, placed in microtubes, frozen on dry ice and stored at −20° C. to measure receptor occupancy. The remaining brain tissue was weighed, placed in homogenization tubes, frozen on dry ice, and stored at −80° C. prior to transferring (on dry ice) to Signature DMPK with the plasma samples.

Chain of 5-HT2A (P28223 whole entry): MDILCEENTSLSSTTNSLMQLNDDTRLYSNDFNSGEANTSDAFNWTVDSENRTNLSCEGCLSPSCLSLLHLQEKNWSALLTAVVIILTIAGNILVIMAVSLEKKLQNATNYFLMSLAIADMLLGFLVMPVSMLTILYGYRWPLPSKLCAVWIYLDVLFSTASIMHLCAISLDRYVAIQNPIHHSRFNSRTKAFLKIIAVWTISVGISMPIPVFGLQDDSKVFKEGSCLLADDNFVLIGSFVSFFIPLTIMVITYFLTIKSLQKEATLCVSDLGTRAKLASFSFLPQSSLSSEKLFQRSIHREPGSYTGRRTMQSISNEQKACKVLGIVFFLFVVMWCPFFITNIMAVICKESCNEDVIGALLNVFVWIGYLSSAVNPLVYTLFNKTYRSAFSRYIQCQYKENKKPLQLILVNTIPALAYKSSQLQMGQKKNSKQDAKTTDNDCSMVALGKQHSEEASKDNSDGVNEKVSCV

Compound: COc1ccc(OC)c(CCNCc2cc(C)cc(F)c2)c1 [Compound 2-2, 2-(2,5-dimethoxyphenyl)-N-(3-fluoro-5-methylbenzyl)ethan-1-amine]
- IC50 (5-HT2A): 69 nM
- Ki (5-HT2A): 30.8 nM
- concentration at 15 min ([1]; brain, 1 mg/kg, 1 mg/kg IP, read-out: Terminal Brain Conc (ng/g) at 15 min, Mean): 182 ng/g
- concentration at 15 min ([1]; brain, 1 mg/kg, 1 mg/kg IP, read-out: Terminal Brain Free Concentration (uM) at 15 min, Mean): 0.01 µM
- concentration at 15 min ([1]; brain, 1 mg/kg, 1 mg/kg IP, read-out: Terminal Brain Total Concentration (uM) at 15 min, Mean): 0.6 µM
- concentration at 15 min ([1]; brain, 3 mg/kg, 3 mg/kg IP, read-out: Terminal Brain Free Concentration (uM) at 15 min, Mean): 0.039 µM
- concentration at 15 min ([1]; brain, 10 mg/kg, 10 mg/kg IP, read-out: Terminal Brain Conc (ng/g) at 15 min, Mean): 3280 ng/g
- concentration at 15 min ([1]; brain, 10 mg/kg, 10 mg/kg IP, read-out: Terminal Brain Free Concentration (uM) at 15 min, Mean): 0.175 µM
- concentration at 15 min ([1]; brain, 10 mg/kg, 10 mg/kg IP, read-out: Terminal Brain Total Concentration (uM) at 15 min, Mean): 10.8 µM
- concentration at 15 min ([1]; plasma, 1 mg/kg, 1 mg/kg IP, read-out: Terminal Plasma Conc (ng/mL) at 15 min, Mean): 60.1 ng/mL
- concentration at 15 min ([1]; plasma, 1 mg/kg, 1 mg/kg IP, read-out: Terminal Plasma Free Concentration (uM) at 15 min, Mean): 0.016 µM
- concentration at 15 min ([1]; plasma, 1 mg/kg, 1 mg/kg IP, read-out: Terminal Plasma Total Concentration (uM) at 15 min, Mean): 0.2 µM
- concentration at 15 min ([1]; plasma, 3 mg/kg, 3 mg/kg IP, read-out: Terminal Plasma Free Concentration (uM) at 15 min, Mean): 0.082 µM
- concentration at 15 min ([1]; plasma, 10 mg/kg, 10 mg/kg IP, read-out: Terminal Plasma Conc (ng/mL) at 15 min, Mean): 1020 ng/mL
- concentration at 15 min ([1]; plasma, 10 mg/kg, 10 mg/kg IP, read-out: Terminal Plasma Free Concentration (uM) at 15 min, Mean): 0.277 µM
- concentration at 15 min ([1]; plasma, 10 mg/kg, 10 mg/kg IP, read-out: Terminal Plasma Total Concentration (uM) at 15 min, Mean): 3.38 µM
